Counter-ions that a name gives are not always drawn.
Test: Effect of buffer concentration on stability at 60° C. (HPLC, pH)
Assay type: physicochemical
Details: for pH: 60° C.
Experimental: The drug is monitored at a detection wavelength of 232 nm.
Tightly sealed glass vials containing the test solutions were placed in an oven at 40° C. or 60° C. All samples were stored in the dark. Aliquots were removed at designated time points for HPLC analysis and pH measurement. All samples were analyzed without dilution.
In conjunction with HPLC analysis, pH was measured. The measurement was performed using the same samples as used for the HPLC analysis. The pH meter was calibrated using pH 4.00 and 7.00 buffer standards prior to each measurement.
Samples were incubated at 60° C. with scheduled testing performed at day 0, 2, 7, and 14. The various buffer concentrations were prepared by diluting the 50 mM buffer with water and re-examining the pH value to determine if the pH 3.5 was constant. Measurements of pH were performed after HPLC analysis of the samples.

[1] = 0 mM sodium acetate (un-buffered) pH 3.5, 60° C., Day 0
[2] = 0 mM sodium acetate (un-buffered) pH 3.5, 60° C., Day 2
[3] = 0 mM sodium acetate (un-buffered) pH 3.5, 60° C., Day 7
[4] = 0 mM sodium acetate (un-buffered) pH 3.5, 60° C., Day 14
[5] = 5 mM sodium acetate pH 3.5, 60° C., Day 0
[6] = 5 mM sodium acetate pH 3.5, 60° C., Day 2
[7] = 5 mM sodium acetate pH 3.5, 60° C., Day 7
[8] = 5 mM sodium acetate pH 3.5, 60° C., Day 14
[9] = 10 mM sodium acetate pH 3.5, 60° C., Day 0
[10] = 10 mM sodium acetate pH 3.5, 60° C., Day 2
[11] = 10 mM sodium acetate pH 3.5, 60° C., Day 7
[12] = 10 mM sodium acetate pH 3.5, 60° C., Day 14
[13] = 50 mM sodium acetate pH 3.5, 60° C., Day 7
[14] = 50 mM sodium acetate pH 3.5, 60° C., Day 14

SMILES: Cc1ccc(N(CC2=NCCN2)c2cccc(O)c2)cc1 [Phentolamine Mesylate, phentolamine mesylate]
- Phentolamine Concentration [1]: 90 µg/mL
- Phentolamine Purity [1]: 99 % peak area
- Phentolamine Concentration [2]: 92 µg/mL
- Phentolamine Purity [2]: 99 % peak area
- Phentolamine Concentration [3]: 82 µg/mL
- Phentolamine Purity [3]: 98 % peak area
- Phentolamine Concentration [4]: 77 µg/mL
- Phentolamine Purity [4]: 97 % peak area
- pH (0 mM sodium acetate (un-buffered), Day 0): 3.6
- pH (0 mM sodium acetate (un-buffered), Day 2): 4.4
- pH (0 mM sodium acetate (un-buffered), Day 7): 5.1
- pH (0 mM sodium acetate (un-buffered), Day 14): 5.3
- Phentolamine Concentration [5]: 99 µg/mL
- Phentolamine Purity [5]: 99 % peak area
- Phentolamine Concentration [6]: 97 µg/mL
- Phentolamine Purity [6]: 99 % peak area
- Phentolamine Concentration [7]: 94 µg/mL
- Phentolamine Purity [7]: 98 % peak area
- Phentolamine Concentration [8]: 92 µg/mL
- Phentolamine Purity [8]: 98 % peak area
- pH (5 mM sodium acetate, Day 0): 3.5
- pH (5 mM sodium acetate, Day 2): 3.8
- pH (5 mM sodium acetate, Day 7): 3.8
- pH (5 mM sodium acetate, Day 14): 3.8
- Phentolamine Concentration [9]: 100 µg/mL
- Phentolamine Purity [9]: 99 % peak area
- Phentolamine Concentration [10]: 97 µg/mL
- Phentolamine Purity [10]: 99 % peak area
- Phentolamine Concentration [11]: 96 µg/mL
- Phentolamine Purity [11]: 98 % peak area
- Phentolamine Concentration [12]: 92 µg/mL
- Phentolamine Purity [12]: 98 % peak area
- pH (10 mM sodium acetate, Day 0): 3.5
- pH (10 mM sodium acetate, Day 2): 3.7
- pH (10 mM sodium acetate, Day 7): 3.8
- pH (10 mM sodium acetate, Day 14): 3.7
- Phentolamine Purity (50 mM sodium acetate pH 3.5, 60° C., Day 0): 98 % peak area
- Phentolamine Purity (50 mM sodium acetate pH 3.5, 60° C., Day 2): 98 % peak area
- Phentolamine Concentration [13]: 99 µg/mL
- Phentolamine Purity [13]: 98 % peak area
- Phentolamine Concentration [14]: 96 µg/mL
- Phentolamine Purity [14]: 96 % peak area
- pH (50 mM sodium acetate, Day 0): 3.5
- pH (50 mM sodium acetate, Day 2): 3.6
- pH (50 mM sodium acetate, Day 7): 3.6
- pH (50 mM sodium acetate, Day 14): 3.6
- rate of degradation vs un-buffered control (0 mM) (5, 10 and 50 mM sodium acetate, pH 3.5, 60° C.): comparable and was an improvement over the un-buffered control
